Counter-ions that a name gives are not always drawn. Bounds are passed on as bounds.

For the compound `Cc1ccc(C)c(-c2sc(NC(=O)[C@H]3C[C@@H]4CC[C@H]3C4)c(C#N)c2C(F)(F)F)c1`, the melting point turned out to be 242 °C.
In the case of `Cc1ccc(C)c(-c2sc(NC(=O)[C@@H]3C[C@@H]4CC[C@H]3C4)c(C#N)c2Cl)c1` it was 117 to 119 °C.
Regarding `N#Cc1c(NC(=O)C2CCCCC2)sc(-c2ccccc2)c1Cl`, the melting point was in the range of 175 to 180 °C.
`N#Cc1c(NC(=O)C2CCCCC2)sc(-c2ccccc2)c1Br` returned a melting point of 167 to 168 °C.
For `N#Cc1c(NC(=O)C2CCCCC2)sc(-c2ccccc2)c1C#N` the value was 208 to 212 °C; for `N#Cc1c(NC(=O)C2CCCCC2)sc(-c2ccccc2)c1[N+](=O)[O-]`, 213 to 214 °C; for `CCCc1sc(NC(=O)C2CCCCC2)c(C#N)c1OC`, 146 to 147 °C.
In turn, `Cc1ccc(C)c(-c2sc(NC(=O)[C@H]3C[C@H]4C=C[C@@H]3C4)c(C#N)c2C(F)(F)F)c1` came in with a melting point of 209 to 211 °C.
In turn, `Cc1ccc(C)c(-c2sc(NC(=O)[C@H]3C[C@H]4CC[C@@H]3C4)c(C#N)c2C(F)(F)F)c1` came in with a melting point of 230 °C.
Consider `Cc1ccc(C)c(-c2sc(NC(=O)[C@@H]3C[C@H]4C=C[C@@H]3C4)c(C#N)c2C(F)(F)F)c1`, for which the melting point was in the range of 226 to 227 °C.
For `Cc1ccc(C)c(-c2sc(NC(=O)[C@@H]3C[C@H]4CC[C@@H]3C4)c(C#N)c2C(F)(F)F)c1` the value was 239 to 240 °C; for `Cc1ccc(C)c(-c2sc(NC(=O)[C@@H]3C[C@@H]4C=C[C@H]3C4)c(C#N)c2C(F)(F)F)c1`, 213 to 214 °C; for `Cc1ccc(C)c(-c2sc(NC(=O)[C@@H]3C[C@@H]4CC[C@H]3C4)c(C#N)c2C(F)(F)F)c1`, 231 to 233 °C.
For `Cc1ccc(C)c(C2SC(NC(=O)C3CC4CCC3CC4)=C(C#N)C2(Cl)C(F)(F)F)c1` (stereo not shown) the value was 242 to 244 °C; for `Cc1ccc(C)c(-c2cc(C#N)c(NC(=O)[C@@H]3C[C@@H]4CC[C@H]3C4)s2)c1`, 168 to 169 °C; for `Cc1ccc(N(C)CCCc2sc(NC(=O)[C@@H]3C[C@@H]4CC[C@H]3C4)c(C#N)c2C)cc1` (as salt: hydrochloride), 116 to 129 °C (dec.).
For `Cc1ccc(N(C)CCCc2sc(NC(=O)C3CC4CCC3CC4)c(C#N)c2C)cc1` (stereo not shown) (as salt: hydrochloride) the value was 133 to 140 °C.
With `Cc1c(CCCN(C)c2ccccn2)sc(NC(=O)C2CC3CCC2CC3)c1C#N` (stereo not shown) (as salt: hydrochloride), the melting point was > 80 °C (dec.).
In the case of `Cc1ccc(C)c(-c2sc(NC(=O)[C@@H]3C[C@H]4CC[C@@H]3CC4)c(C#N)c2Cl)c1` (stereo in doubt), the melting point fell in the range of 208 to 210 °C.

As a reminder, the melting point is the temperature, or range, at which the solid turns liquid.

These data come from patent US20060094764A1, “Cyanothiophenes, their preparation and their use in pharmaceutical compositions” (Boehringer Ingelheim International GmbH, priority 2004, published 2006).
